Data taken from ChEMBL document CHEMBL1201862, “PubChem BioAssay data set” (2004).
The source made the active and inactive calls.

Experiments:
Cytochrome P450 3A4 = Cytochrome P450 3A4 (Homo sapiens, UniProt P08684); conditions: Potency;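 note: confirmatory qHTS run detecting inhibitors and substrates of CYP3A4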
Prothrombin = Prothrombin (Homo sapiens, UniProt P00734); test: Thrombin 1536 HTS Dose Response Confirmation. [Related pubchem assays: 1046 (Thrombin 1536 HTS; hits were confirmed in this assay)]; assay type: functional
Protein skinhead-1 = molecular target: T1, Protein skinhead-1 (Caenorhabditis elegans, UniProt P34707); assay type: functional
T1 sequence (P34707 whole entry): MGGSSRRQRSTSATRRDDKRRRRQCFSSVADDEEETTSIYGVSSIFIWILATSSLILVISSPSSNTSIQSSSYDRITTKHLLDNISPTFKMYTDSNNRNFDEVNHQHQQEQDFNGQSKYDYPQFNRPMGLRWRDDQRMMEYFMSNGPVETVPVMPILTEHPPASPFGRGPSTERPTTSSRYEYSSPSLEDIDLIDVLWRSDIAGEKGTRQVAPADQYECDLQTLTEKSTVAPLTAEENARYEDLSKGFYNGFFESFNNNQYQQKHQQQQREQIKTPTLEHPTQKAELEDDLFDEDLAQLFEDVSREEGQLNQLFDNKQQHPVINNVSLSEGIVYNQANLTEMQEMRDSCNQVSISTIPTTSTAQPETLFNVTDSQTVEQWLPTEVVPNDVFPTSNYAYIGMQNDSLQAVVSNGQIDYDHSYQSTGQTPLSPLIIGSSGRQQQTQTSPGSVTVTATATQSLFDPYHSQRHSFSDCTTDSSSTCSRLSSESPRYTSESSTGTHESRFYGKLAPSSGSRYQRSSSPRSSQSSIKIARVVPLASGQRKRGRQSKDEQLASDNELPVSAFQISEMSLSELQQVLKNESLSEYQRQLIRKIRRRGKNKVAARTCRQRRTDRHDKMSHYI

HeLa = test: HeLa cell cytotoxicity, dose response, cytotoxicity control for MITF activator project, CellTiter-Glo luminescence, cherry-pick samples (AID 540259); assay type: functional, cell-based; conditions: Homo sapiens
[1] = molecular target: T2, Mannose-6-phosphate isomerase (Homo sapiens, UniProt P34949); test: PMI enzyme inhibitors, confirmation, biochemical, fluorescence intensity (AID 1535)
T2 sequence (P34949 whole entry): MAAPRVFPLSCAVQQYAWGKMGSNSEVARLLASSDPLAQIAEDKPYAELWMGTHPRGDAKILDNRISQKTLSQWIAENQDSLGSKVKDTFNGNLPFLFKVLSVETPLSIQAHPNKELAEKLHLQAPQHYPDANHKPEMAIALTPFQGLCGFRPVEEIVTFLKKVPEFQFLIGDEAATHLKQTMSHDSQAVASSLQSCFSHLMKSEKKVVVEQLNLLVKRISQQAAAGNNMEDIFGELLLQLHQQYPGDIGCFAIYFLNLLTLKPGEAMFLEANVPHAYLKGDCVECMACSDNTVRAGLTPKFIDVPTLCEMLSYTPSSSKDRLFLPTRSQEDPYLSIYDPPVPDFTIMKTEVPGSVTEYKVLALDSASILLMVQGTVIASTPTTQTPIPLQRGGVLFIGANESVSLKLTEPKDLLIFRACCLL

[2] = microbe, parasite or virus in culture; assay type: functional; conditions: Mycobacterium tuberculosis
H9c2 = test: cells; assay type: functional, cell-based; conditions: Rattus norvegicus, H9c2, Myocardium
[3] = THP-1 cell cytotoxicity, dose response, cytotoxicity control for non-replicating M. tuberculosis project (AID 489025); assay type: functional
cells = assay type: functional
[4] = Vero E6 cell cytotoxicity, dose response, cytotoxicity control for non-replicating M. tuberculosis project, secondary assay (AID 492998); assay type: functional, VeroE6; conditions: Vero C1008
[5] = molecular target: T3, Calpain-2 catalytic subunit (Sus scrofa, UniProt P43367); test: pig calpain II inhibitor potency, dose response, biochemical, fluorogenic peptide substrate (AID 1420); assay type: functional
T3 sequence (P43367 whole entry): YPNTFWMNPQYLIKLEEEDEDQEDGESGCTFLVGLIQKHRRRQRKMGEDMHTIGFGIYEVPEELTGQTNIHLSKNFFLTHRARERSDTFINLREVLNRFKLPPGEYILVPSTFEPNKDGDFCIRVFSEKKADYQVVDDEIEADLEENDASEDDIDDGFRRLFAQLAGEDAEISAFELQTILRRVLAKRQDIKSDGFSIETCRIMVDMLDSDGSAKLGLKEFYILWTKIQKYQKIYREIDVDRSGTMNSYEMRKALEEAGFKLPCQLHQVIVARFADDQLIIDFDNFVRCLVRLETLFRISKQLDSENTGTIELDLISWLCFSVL

[6] = HepG2 cell cytotoxicity, dose response, cytotoxicity control, cherry-picked samples (AID 1159577); assay type: functional, cell-based
[7] = HepG2 cell cytotoxicity, dose response, cytotoxicity control, plate reader, dry powder samples (AID 1159569); assay type: functional, cell-based;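 note: inhibitor potency with signal falling toward the positive control level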
[8] = P. falciparum Dd2 growth inhibitors, dose response, SYBR Green, cherry-picked samples (AID 1159567); assay type: functional, cell-based
[9] = P. falciparum 3D7-ScDHODH growth inhibitors, dose response, SYBR Green, dry powder samples (AID 1159570); assay type: functional, cell-based;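 note: parasite growth measured after 72 hours of compound exposure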
[10] = P. falciparum ATP4 D1247Y mutant growth inhibitors, dose response, NITD609-resistant line, SYBR Green, dry powder (AID 1159571); assay type: functional, cell-based;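 note: parasites synchronized at ring stage by sorbitol before testing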
[11] = P. falciparum Dd2 growth inhibitors, dose response, SYBR Green, dry powder samples (AID 1159566); assay type: functional, cell-based;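 note: potency for growth inhibition with lower SYBR green DNA signal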
[12] = molecular target: Voltage-dependent T-type calcium channel subunit alpha-1H (Homo sapiens, UniProt O95180); assay type: functional;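 note: channel activity triggered by adding a high calcium stimulation buffer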
Sequence of Voltage-dependent T-type calcium channel subunit alpha-1H (O95180 whole entry): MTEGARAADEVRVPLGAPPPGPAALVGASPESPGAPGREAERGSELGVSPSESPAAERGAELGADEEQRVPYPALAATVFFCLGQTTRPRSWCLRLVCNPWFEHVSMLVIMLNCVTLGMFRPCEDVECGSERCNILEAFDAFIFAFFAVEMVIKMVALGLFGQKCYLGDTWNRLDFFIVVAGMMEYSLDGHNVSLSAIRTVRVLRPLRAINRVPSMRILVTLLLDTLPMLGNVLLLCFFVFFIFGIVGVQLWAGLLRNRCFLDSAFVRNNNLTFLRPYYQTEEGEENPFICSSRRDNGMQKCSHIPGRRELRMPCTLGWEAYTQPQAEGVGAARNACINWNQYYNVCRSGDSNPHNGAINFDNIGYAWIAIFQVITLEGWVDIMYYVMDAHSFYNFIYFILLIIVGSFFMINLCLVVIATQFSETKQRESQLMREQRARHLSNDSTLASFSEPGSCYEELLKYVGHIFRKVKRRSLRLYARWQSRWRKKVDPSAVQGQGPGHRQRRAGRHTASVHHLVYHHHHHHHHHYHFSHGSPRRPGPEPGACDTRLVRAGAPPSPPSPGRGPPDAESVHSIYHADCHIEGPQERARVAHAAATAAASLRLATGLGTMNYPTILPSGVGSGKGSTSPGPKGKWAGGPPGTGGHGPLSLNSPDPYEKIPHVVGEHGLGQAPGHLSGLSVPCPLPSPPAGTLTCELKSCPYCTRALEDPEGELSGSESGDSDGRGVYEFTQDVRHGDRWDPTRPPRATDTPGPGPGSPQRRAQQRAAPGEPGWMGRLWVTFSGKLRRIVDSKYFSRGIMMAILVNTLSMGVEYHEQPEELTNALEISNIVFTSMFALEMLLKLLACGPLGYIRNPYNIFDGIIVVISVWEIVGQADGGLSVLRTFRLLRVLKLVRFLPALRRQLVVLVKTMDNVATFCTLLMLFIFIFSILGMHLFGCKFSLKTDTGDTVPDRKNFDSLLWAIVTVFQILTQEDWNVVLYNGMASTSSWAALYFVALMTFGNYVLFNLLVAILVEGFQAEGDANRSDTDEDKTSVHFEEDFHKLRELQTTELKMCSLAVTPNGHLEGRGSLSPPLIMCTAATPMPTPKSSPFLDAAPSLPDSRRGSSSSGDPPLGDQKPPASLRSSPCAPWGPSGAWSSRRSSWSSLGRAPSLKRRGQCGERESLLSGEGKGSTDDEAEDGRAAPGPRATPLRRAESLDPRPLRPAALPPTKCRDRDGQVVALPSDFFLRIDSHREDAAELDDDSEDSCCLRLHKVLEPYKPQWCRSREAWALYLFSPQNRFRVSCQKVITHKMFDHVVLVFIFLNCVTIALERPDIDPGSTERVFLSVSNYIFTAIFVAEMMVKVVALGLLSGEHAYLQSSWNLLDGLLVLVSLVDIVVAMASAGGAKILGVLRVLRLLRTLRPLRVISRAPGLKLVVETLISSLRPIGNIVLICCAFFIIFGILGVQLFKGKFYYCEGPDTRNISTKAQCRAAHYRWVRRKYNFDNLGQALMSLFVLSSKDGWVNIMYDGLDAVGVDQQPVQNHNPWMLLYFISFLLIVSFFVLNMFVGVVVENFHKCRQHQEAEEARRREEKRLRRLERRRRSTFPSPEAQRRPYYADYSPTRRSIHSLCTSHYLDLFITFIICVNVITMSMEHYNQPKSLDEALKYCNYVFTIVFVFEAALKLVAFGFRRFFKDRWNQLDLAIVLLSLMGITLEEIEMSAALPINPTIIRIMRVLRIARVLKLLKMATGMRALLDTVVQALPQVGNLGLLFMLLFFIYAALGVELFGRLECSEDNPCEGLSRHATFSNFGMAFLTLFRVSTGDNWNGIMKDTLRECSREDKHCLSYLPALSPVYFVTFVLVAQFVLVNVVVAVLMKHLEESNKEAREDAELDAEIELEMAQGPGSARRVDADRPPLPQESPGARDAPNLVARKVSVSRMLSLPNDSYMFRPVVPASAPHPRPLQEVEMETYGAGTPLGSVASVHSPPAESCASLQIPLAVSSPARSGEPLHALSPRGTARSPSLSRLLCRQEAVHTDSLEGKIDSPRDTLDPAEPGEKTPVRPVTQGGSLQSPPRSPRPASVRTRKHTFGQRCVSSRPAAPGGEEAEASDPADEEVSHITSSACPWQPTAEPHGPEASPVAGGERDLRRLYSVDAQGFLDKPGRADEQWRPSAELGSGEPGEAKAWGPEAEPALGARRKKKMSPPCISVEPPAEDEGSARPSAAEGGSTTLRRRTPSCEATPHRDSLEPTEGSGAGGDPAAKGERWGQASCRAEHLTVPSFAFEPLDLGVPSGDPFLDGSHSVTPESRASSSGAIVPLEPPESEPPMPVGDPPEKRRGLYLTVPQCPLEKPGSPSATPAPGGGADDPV

[13] = molecular target: T4, Sentrin-specific protease 7 (Homo sapiens, UniProt Q9BQF6); assay type: functional;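 note: Luminescence-based dose-response confirmation of ultra-high-throughput screening hits, measuring inhibition of SENP7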
T4 sequence (Q9BQF6 whole entry): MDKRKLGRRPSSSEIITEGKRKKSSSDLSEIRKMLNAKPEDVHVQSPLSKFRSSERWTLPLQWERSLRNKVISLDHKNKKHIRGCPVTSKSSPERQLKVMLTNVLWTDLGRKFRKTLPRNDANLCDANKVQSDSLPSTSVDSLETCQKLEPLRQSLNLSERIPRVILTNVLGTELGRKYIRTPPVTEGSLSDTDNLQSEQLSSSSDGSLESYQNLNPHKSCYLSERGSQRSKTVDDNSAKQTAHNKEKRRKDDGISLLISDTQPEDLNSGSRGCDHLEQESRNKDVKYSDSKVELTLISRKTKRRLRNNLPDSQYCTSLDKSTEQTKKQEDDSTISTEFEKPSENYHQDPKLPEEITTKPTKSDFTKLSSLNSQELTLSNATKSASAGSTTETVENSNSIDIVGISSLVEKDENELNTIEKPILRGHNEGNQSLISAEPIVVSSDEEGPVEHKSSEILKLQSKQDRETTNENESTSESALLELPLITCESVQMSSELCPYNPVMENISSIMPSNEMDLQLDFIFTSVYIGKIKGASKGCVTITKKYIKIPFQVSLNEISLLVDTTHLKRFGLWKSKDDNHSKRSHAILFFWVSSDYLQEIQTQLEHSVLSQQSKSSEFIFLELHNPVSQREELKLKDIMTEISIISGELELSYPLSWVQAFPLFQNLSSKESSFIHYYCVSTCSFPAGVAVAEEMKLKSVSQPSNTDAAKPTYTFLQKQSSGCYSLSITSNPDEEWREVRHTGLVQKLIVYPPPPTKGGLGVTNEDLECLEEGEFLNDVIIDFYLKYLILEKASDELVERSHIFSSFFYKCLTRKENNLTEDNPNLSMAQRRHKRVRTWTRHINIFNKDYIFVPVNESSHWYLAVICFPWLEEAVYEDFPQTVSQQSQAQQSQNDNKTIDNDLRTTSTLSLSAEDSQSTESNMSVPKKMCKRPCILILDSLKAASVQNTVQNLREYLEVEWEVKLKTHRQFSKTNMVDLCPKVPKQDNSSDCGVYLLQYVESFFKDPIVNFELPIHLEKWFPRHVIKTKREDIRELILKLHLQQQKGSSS

[14] = molecular target: T5, Sentrin-specific protease 8 (Homo sapiens, UniProt Q96LD8); assay type: functional;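 note: luminescence read-out of SENP8 inhibition, dose-response confirmation following an ultra-high-throughput screen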
T5 sequence (Q96LD8 whole entry): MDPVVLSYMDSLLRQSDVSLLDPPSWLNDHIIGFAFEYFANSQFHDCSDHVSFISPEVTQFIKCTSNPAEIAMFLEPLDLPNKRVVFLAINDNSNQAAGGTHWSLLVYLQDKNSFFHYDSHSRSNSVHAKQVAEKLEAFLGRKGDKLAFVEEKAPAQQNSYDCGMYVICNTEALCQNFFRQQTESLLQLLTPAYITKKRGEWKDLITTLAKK

Caspase-3 = molecular target: T6, Caspase-3 (Homo sapiens, UniProt P42574); assay type: functional;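 note: Dose-response selectivity test against caspase-3 for candidate inhibitors of sentrin-specific proteases (SENPs)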
T6 sequence (P42574 whole entry): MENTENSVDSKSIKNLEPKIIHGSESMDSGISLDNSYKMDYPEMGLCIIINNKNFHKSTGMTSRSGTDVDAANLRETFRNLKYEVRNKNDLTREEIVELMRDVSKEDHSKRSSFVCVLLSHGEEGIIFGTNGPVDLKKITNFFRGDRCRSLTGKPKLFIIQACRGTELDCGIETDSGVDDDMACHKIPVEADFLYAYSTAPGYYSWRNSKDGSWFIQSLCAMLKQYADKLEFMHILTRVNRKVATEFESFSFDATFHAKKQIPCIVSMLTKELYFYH

[15] = molecular target: T7, Sentrin-specific protease 6 (Homo sapiens, UniProt Q9GZR1); assay type: functional;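 note: Luminescence-based dose-response confirmatory assay of SENP6 inhibition, following up an ultra-high-throughput screen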
T7 sequence (Q9GZR1 whole entry): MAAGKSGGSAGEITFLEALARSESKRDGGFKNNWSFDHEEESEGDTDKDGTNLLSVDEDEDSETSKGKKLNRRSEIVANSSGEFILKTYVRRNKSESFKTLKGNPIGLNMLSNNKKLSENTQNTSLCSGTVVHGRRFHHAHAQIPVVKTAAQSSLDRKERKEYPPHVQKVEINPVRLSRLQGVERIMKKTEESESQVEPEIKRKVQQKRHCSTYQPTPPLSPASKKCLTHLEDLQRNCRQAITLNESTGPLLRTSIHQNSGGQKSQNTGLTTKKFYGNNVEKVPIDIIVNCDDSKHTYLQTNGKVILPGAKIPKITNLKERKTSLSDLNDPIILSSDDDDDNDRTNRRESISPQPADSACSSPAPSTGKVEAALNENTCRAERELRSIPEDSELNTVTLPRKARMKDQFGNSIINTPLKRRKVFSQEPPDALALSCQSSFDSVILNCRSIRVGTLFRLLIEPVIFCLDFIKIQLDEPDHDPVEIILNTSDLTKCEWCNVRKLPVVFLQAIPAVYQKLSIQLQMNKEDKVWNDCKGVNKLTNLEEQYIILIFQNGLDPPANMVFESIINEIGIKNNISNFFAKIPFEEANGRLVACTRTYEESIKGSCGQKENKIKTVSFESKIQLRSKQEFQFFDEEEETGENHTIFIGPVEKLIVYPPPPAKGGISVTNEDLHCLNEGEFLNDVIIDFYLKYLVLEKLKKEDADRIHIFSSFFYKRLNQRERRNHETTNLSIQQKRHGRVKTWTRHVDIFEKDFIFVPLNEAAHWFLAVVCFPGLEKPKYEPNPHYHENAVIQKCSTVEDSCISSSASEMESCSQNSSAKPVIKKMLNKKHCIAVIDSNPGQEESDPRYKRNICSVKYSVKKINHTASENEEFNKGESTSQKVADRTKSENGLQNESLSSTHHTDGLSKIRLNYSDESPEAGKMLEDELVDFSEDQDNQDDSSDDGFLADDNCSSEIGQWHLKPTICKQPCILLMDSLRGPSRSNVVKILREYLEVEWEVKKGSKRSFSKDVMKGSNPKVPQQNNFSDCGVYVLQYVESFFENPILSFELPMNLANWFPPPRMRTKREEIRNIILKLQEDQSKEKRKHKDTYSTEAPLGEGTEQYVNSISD

Sequence of Cytochrome P450 3A4 (P08684 whole entry): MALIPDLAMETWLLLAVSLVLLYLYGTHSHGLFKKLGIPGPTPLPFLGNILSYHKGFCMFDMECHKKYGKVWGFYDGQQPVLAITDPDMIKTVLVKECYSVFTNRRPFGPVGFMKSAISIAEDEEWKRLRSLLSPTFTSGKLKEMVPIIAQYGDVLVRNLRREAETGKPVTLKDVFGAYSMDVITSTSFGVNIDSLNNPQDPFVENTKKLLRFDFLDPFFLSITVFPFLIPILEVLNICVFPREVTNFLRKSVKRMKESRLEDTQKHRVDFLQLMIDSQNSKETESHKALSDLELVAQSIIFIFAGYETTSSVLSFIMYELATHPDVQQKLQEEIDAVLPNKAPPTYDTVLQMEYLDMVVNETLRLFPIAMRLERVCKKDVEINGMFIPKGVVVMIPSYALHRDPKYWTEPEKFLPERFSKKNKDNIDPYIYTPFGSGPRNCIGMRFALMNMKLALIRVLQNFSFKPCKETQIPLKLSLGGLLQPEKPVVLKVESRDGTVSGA

## Cc1ccc(O)c(/N=N\c2ccccc2)n1
Cytochrome P450 3A4
  AC50: 5.01 µM (inconclusive)

## CCOC(=O)C1=CC(OC(CC)CC)C(NC(C)=O)C(N)C1 (stereo unspecified)
Cytochrome P450 3A4
  AC50: 25.1 µM (inconclusive)

## CCN(CC)C(=O)Cn1cc(C(=O)C(=O)NCCCn2ccnc2)c2ccccc21
Prothrombin
  IC50: > 50 µM (not active)

## CC1(C)CCCC2(C)C3C(O)CC2(C)C(O)C31 (stereo unspecified)
Cytochrome P450 3A4
  AC50: 31.6 µM (inconclusive)

## NC(=NOC(=O)c1cccc(Cl)c1)c1cccnc1
Protein skinhead-1
  IC50: 86.4 µM (inactive)
Prothrombin
  IC50: > 50 µM (not active)

## COC(=O)c1ccc2[nH]c(C3(O)CCCCC3)c(C)c2c1
HeLa
  AC50: 44.3 µM (active)

## Nc1nc(-c2ccco2)nn1C(=O)c1cccnc1
Prothrombin
  IC50: 0.589 µM (active)

## O=C(N/N=C\c1ccccc1O)c1ccccc1O
Cytochrome P450 3A4
  AC50: 6.31 µM (inconclusive)

## COc1ccc(/N=c2\ssnc2Cl)cn1
[1]
  IC50: 29.8 µM (active)

## COCCNC(=O)C1(CC(C)C)C=CCN1C(=O)OC (stereo unspecified)
Cytochrome P450 3A4
  AC50: 0.1 µM (inconclusive)

## CCOC(=O)Cn1c(=O)oc2cc(S(=O)(=O)NCCc3ccc(C)cc3)ccc21
Prothrombin
  IC50: > 50 µM (not active)

## Cc1cc(/N=c2\ssnc2Cl)n[nH]1
[1]
  IC50: 5.94 µM (active)

## CC(C)(C)c1ccc(-c2cc(C(=O)NNC(=O)Nc3ccccc3)c3ccccc3n2)cc1
HeLa
  AC50: 69.9 µM (active)

## CCCC(=O)n1nc(-c2ccc(C)cc2)nc1NCc1ccco1
Prothrombin
  IC50: 11.1 µM (active)

## O=C(N/N=C/c1cccc2cccnc12)[C@H]1C[C@@H]1c1ccccc1
[2]
  CC50: > 40 µM (active)
H9c2
  IC50: 11.2 µM (active)
[3]
  CC50: 32.9 µM (active)
cells
  IC50: 33.1 µM (active)
[4]
  CC50: > 20 µM (active)

## COc1ccc(Cl)cc1N(CC(=O)NC(C)(C)C)S(=O)(=O)c1ccc(C)c([N+](=O)[O-])c1
[5]
  IC50: 12.7 µM (not active)

## Cc1c(C(=O)N2c3ccccc3Sc3ccccc32)cccc1[N+](=O)[O-]
[5]
  IC50: 2.4 µM (not active)

## COc1ccccc1N1CCN(CC(O)COc2ccc3c(c2)OCO3)CC1 (stereo unspecified)
[5]
  IC50: > 50 µM (not active)

## COc1ccc2c3c(n(C)c2c1)[C@@H](CO)N(C(=O)CN(C)C)CC31CCN(Cc2cccnc2)CC1
[6]
  AC50: > 39 µM (inactive)
[7]
  AC50: 64.4 µM (active)
[8]
  AC50: 2.9 µM (active)
[9]
  AC50: 2.3 µM (active)
[10]
  AC50: 4.01 µM (active)
[11]
  AC50: 2.61 µM (active)

## COc1ccc(C(=O)N(Cc2nc(-c3ccc(C)cc3)no2)C2CCCCC2)cc1OC
[12]
  EC50: 8.02 µM (active)
[5]
  IC50: 10.8 µM (not active)

## O=C(Nc1ccc2c(c1)CCC2)c1cccc(S(=O)(=O)Nc2ccccc2Cl)c1
[13]
  IC50: 23.9 µM (active)
[14]
  IC50: 92.9 µM (active)
Caspase-3
  IC50: 70.3 µM (active)
[15]
  IC50: 47.3 µM (active)
[5]
  IC50: 6.7 µM (not active)
